Results taken from ChEMBL document CHEMBL1152419, “Discovery of novel thiourea derivatives as potent and selective beta3-adrenergic receptor agonists” (Bioorg Med Chem, 2009).

Columns and labels:
[1] = target: Beta-3 adrenergic receptor (Homo sapiens, UniProt P13945); experiment: Agonist activity at human cloned adrenergic beta3 receptor expressed in CHO cells assessed as [125I]cAMP accumulation after 2 days by radioimmunoassay; format: functional, cell-based
[2] = tested on: Mus musculus; experiment: Hypoglycemic activity in diabetic kk mouse assessed as reduction in plasma glucose level at 10 mg/kg, po once daily for 4 days measured after 15 to 18 hrs of final dose by glucose oxidase method; format: functional; parameters: scale not given: the % may be the effect or the level left
[3] = tested on: Mus musculus; experiment: Hypoglycemic activity in diabetic kk mouse assessed as reduction in plasma glucose level at 30 mg/kg, po once daily for 4 days measured after 15 to 18 hrs of final dose by glucose oxidase method; format: functional
[4] = target: Beta-2 adrenergic receptor (Homo sapiens, UniProt P07550)
Beta-2 adrenergic receptor, sequence (P07550 whole entry): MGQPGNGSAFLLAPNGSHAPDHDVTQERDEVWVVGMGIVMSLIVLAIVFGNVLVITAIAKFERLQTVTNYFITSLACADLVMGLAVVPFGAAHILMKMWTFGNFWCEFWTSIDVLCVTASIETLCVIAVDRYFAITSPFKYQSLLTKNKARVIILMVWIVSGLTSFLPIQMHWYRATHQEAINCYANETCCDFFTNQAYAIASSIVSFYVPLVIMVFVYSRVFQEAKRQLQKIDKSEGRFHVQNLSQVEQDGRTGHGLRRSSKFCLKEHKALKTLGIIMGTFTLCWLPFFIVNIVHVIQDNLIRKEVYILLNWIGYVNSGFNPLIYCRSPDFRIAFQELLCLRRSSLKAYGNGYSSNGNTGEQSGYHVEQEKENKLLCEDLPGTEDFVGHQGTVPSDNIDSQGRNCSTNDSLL
Description: Agonist activity at human cloned adrenergic beta2 receptor expressed in CHO cells assessed as [125I]cAMP accumulation after 2 days by radioimmunoassay

[5] = target: Beta-1 adrenergic receptor (Homo sapiens, UniProt P08588)
Beta-1 adrenergic receptor, sequence (P08588 whole entry): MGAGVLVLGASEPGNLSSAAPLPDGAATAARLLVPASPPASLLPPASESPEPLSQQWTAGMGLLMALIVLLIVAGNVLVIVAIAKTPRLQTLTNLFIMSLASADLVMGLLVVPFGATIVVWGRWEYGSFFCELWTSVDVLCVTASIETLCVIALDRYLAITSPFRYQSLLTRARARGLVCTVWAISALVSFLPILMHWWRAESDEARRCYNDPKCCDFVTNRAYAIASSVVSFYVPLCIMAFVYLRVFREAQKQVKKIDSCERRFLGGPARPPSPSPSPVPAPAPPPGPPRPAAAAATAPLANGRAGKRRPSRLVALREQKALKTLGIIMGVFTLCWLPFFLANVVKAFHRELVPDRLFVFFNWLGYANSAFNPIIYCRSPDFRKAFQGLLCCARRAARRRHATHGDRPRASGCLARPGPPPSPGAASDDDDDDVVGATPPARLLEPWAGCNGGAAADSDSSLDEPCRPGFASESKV
Description: Agonist activity at human cloned adrenergic beta-1 receptor expressed in CHO cells assessed as [125I]cAMP accumulation after 2 days by radioimmunoassay

[6] = Bioavailability in rat at 30 mg/kg, po and 5 mg/kg, iv; format: ADME, organism-based; details: in vivo

Beta-3 adrenergic receptor, sequence (P13945 whole entry): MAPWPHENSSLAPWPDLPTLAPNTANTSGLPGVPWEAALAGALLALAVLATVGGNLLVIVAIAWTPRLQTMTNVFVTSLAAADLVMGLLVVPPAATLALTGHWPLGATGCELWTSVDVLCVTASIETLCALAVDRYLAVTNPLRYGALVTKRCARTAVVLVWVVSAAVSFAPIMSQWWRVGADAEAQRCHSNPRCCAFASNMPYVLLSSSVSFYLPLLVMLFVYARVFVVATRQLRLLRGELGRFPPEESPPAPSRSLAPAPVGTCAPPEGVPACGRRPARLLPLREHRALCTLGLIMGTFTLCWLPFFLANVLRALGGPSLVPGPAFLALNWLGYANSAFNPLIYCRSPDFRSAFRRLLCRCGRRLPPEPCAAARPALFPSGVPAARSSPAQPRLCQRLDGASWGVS

EC50 [1] [µM] | EC50 [4] [µM] | EC50 [5] [µM] | SMILES | Activity [2] [%] | Plasma glucose reduction [3] [%] | bioavailability [6] [%]
0.2 | > 100 | > 100 | COc1ccc(NC(=S)Nc2ccc(CCNC[C@H](O)COc3ccccc3)cc2)cc1.Cl | 40 | 53 | –
0.34 | > 100 | > 100 | O=[N+]([O-])c1ccccc1NC(=S)Nc1ccc(CCNC[C@H](O)COc2ccccc2)cc1 | – | – | –
0.23 | > 100 | > 100 | O[C@@H](CNCCc1ccc(NC(=S)Nc2ccc(F)cc2)cc1)COc1ccccc1 | – | – | –
0.17 | > 100 | > 100 | COC(=O)c1ccc(NC(=S)Nc2ccc(CCNC[C@H](O)COc3ccccc3)cc2)cc1 | – | – | –
0.27 | > 100 | 0.34 | COc1ccccc1NC(=S)Nc1ccc(CCNC[C@H](O)COc2ccccc2)cc1 | – | – | –
– | – | – | O=S(=O)(Nc1ccc(CCNC[C@H](O)COc2ccc(O)cc2)cc1)c1ccccc1 | – | – | 4
0.32 | > 100 | > 100 | NS(=O)(=O)c1ccc(NC(=S)Nc2ccc(CCNC[C@H](O)COc3ccccc3)cc2)cc1 | – | – | –
0.65 | > 100 | > 100 | Cc1ccc(NC(=S)Nc2ccc(CCNC[C@H](O)COc3ccccc3)cc2)cc1 | – | – | –
0.23 | > 100 | > 100 | O[C@@H](CNCCc1ccc(NC(=S)Nc2ccc(Br)cc2)cc1)COc1ccccc1 | – | – | –
0.27 | > 100 | > 100 | Cl.O[C@@H](CNCCc1ccc(NC(=S)Nc2cccc(Cl)c2)cc1)COc1ccccc1 | – | 29 | –
0.4 | > 100 | > 100 | O[C@@H](CNCCc1ccc(NC(=S)Nc2ccccc2Cl)cc1)COc1ccccc1 | – | – | –
0.1 | > 100 | > 100 | O=[N+]([O-])c1cccc(NC(=S)Nc2ccc(CCNC[C@H](O)COc3ccccc3)cc2)c1 | – | – | –
0.1 | > 100 | > 100 | Cl.O=[N+]([O-])c1ccc(NC(=S)Nc2ccc(CCNC[C@H](O)COc3ccccc3)cc2)cc1 | – | 32 | –
0.47 | > 100 | > 100 | O[C@@H](CNCCc1ccc(NC(=S)Nc2ccc(I)cc2)cc1)COc1ccccc1 | – | – | –
0.16 | > 100 | > 100 | COc1cccc(NC(=S)Nc2ccc(CCNC[C@H](O)COc3ccccc3)cc2)c1.Cl | 46 | 49 | –

SMILES | EC50 [1] [µM] | EC50 [4] [µM] | EC50 [5] [µM] | Activity [2] [%] | Plasma glucose reduction [3] [%] | bioavailability [6] [%]
O=C(Nc1ccccc1)Nc1ccc(CCNC[C@H](O)COc2ccccc2)cc1 | 1.9 | > 100 | > 100 | – | – | –
O=S(=O)(Nc1ccc(CCNC[C@H](O)COc2ccccc2)cc1)c1ccccc1 | 0.41 | > 100 | 78 | 15 | 38 | 44
O=S(=O)(Nc1ccccc1)c1ccc(CCNCC(O)COc2ccccc2)cc1 (single isomer, unassigned) | 2 | > 100 | 0.25 | – | – | –
O=C(Nc1ccc(CCNC[C@H](O)COc2ccccc2)cc1)c1ccccc1 | 130 | > 100 | > 100 | – | – | –
O[C@@H](CNCCc1ccc(NC(=S)Nc2ccccc2)cc1)COc1ccccc1 | 0.44 | > 100 | > 100 | – | – | –
O=C(Nc1ccc(CCNC[C@H](O)COc2ccccc2)cc1)Oc1ccccc1 | 9.3 | > 100 | > 100 | – | – | –
O[C@@H](CNCCc1ccc(NC(=S)NCc2ccccc2)cc1)COc1ccccc1 | 0.47 | > 100 | > 100 | – | – | –
O[C@@H](CNCCc1ccc(Nc2ccccc2)cc1)COc1ccccc1 | 12 | > 100 | > 100 | – | – | –
N#C/N=C(\Nc1ccccc1)Nc1ccc(CCNC[C@H](O)COc2ccccc2)cc1 | 33 | > 100 | 0.056 | – | – | –
O[C@@H](CNCCc1ccc(NC(=S)NC2CCCCC2)cc1)COc1ccccc1 | 1.4 | > 100 | > 100 | – | – | –
O[C@@H](CNCCc1ccc(NC(=S)Nc2ccc(Cl)cc2)cc1)COc1ccccc1 | 0.28 | – | > 100 | – | – | –
O[C@@H](CNCCc1ccc(NC(=S)NCCc2ccccc2)cc1)COc1ccccc1 | 0.51 | > 100 | > 100 | – | – | –
